Among the data in US20090062294A1, “HETEROARYL-SUBSTITUTED UREA MODULATORS OF FATTY ACID AMIDE HYDROLASE” (priority 2007, published 2009) are IC50 values, retold here.

Structures can show the parent of a compound that is named as a salt.

For one assay, the target named is T1, rat FAAH (Rattus norvegicus, UniProt P97612).
T1 sequence (P97612 1-579): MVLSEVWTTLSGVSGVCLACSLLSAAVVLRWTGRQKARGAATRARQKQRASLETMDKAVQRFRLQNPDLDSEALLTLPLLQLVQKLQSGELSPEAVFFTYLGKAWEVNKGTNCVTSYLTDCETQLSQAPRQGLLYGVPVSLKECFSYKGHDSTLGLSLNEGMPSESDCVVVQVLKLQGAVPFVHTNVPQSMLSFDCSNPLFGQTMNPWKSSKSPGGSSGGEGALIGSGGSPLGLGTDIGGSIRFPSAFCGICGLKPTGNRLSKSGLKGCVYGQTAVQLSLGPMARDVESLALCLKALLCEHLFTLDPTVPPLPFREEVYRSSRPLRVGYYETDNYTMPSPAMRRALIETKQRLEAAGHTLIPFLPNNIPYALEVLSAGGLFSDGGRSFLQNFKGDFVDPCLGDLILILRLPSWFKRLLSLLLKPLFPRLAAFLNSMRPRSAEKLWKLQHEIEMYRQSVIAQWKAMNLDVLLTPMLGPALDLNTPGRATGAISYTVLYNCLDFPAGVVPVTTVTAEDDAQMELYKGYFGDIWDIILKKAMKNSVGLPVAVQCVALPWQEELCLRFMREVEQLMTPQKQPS
Nature of the assay: Assay Method 2: FAAH assay, 3H-anandamide hydrolysis in homogenate of SK-N-MC cells transfected with rat FAAH. Format: biochemical. To be noted: average of results, > = solubility limit or highest concentration tested. Here is the method: A. Transfection of Cells with Rat FAAH
(§1) A 10-cm tissue culture dish with a confluent monolayer of SK—N-MC cells was split 2 days (d) prior to transfection. Using sterile technique, the media was removed and the cells were detached from the dish by the addition of trypsin. One fifth of the cells were then placed onto a new 10-cm dish. Cells were grown in a 37° C. incubator with 5% CO2 in Minimal Essential Media Eagle with 10% Fetal Bovine Serum. After 2 d, cells were approximately 80% confluent. These cells were removed from the dish with trypsin and pelleted in a clinical centrifuge. The pellet was re-suspended in 400 μL complete media and transferred to an electroporation cuvette with a 0.4 cm gap between the electrodes. Supercoiled rat FAAH cDNA (1 μg) was added to the cells and mixed. The voltage for the electroporation was set at 0.25 kV, and the capacitance was set at 960 μF. After electroporation, the cells were diluted into complete media (10 mL) and plated onto four 10-cm dishes. Because of the variability in the efficiency of electroporation, four different concentrations of cells were plated. The ratios used were 1:20, 1:10, and 1:5, with the remainder of the cells being added to the fourth dish. The cells were allowed to recover for 24 h before adding the selection media (complete media with 600 μg/mL G418). After 10 d, dishes were analyzed for surviving colonies of cells. Dishes with well-isolated colonies were used. Cells from individual colonies were isolated and tested.
(§2) T84 frozen cell pellets or transfected SK—N-MC cells (contents of 1×15 cm culture dishes) were homogenized in 50 mL of FAAH assay buffer (125 mM Tris, 1 mM EDTA, 0.2% Glycerol, 0.02% Triton X-100, 0.4 mM Hepes, pH 9). The assay mixture consisted of 50 μL of the cell homogenate, 10 μL of the test compound, and 40 μL of anandamide [1-^3H-ethanolamine] (^3H-AEA, Perkin-Elmer, 10.3 Ci/mmol), which was added last, for a final tracer concentration of 80 nM. The reaction mixture was incubated at rt for 1 h. During the incubation, 96-well Multiscreen filter plates (catalog number MAFCNOB50; Millipore, Bedford, Mass., USA) were loaded with 25 μL of activated charcoal (Multiscreen column loader, catalog number MACL09625, Millipore) and washed once with 100 μL of MeOH. Also during the incubation, 96-well DYNEX MicroLite plates (catalog number NL510410) were loaded with 100 μL of MicroScint40 (catalog number 6013641, Packard Bioscience, Meriden, Conn., USA). After the 1 h incubation, 60 μL of the reaction mixture were transferred to the charcoal plates, which were then assembled on top of the DYNEX plates using Centrifuge Alignment Frames (catalog number MACF09604, Millipore). The unbound labeled ethanolamine was centrifuged through to the bottom plate (5 min at 2000 rpm), which was preloaded with the scintillant, as described above. The plates were sealed and left at rt for 1 h before counting on a Hewlett Packard TopCount.
(§3) Compounds were tested in free base, hydrochloride salt, and/or trifluoroacetic acid salt forms.
`O=C(Nc1cnccn1)N1CCN(Cc2cccc(Oc3ccccc3Cl)c2)CC1` [Example 238, 4-[3-(2-Chlorophenoxy)benzyl]-N-pyrazin-2-ylpiperazine-1-carboxamide]: the IC50 – broadly, the concentration that gives 50% inhibition – worked out at 1.6 µM.

`O=C(Nc1ccc(Cl)nn1)N1CCC(Cc2cccc(C(F)(F)F)c2)CC1` [Example 25, 4-(3-Trifluoromethyl-benzyl)-piperidine-1-carboxylic acid (6-chloro-pyridazin-3-yl)-amide] yielded a 50% inhibitory concentration (IC50) of 1.3 µM.

For the compound `O=C(Nc1ccon1)N1CCN(Cc2cccc(Oc3ccc(Cl)c(Cl)c3)c2)CC1` [Example 47, 4-[3-(3,4-Dichloro-phenoxy)-benzyl]-piperazine-1-carboxylic acid isoxazol-3-ylamide trifluoroacetic acid salt], the 50% inhibitory concentration (IC50) amounted to 0.066 µM.

`O=C(Nc1nnn[nH]1)N1CCN(Cc2ccc3ccccc3n2)CC1` [Example 175, 4-(Quinolin-2-ylmethyl)-N-1H-tetrazol-5-ylpiperazine-1-carboxamide] gave an IC50 of 1 µM.

On to `O=C(Nc1cccc2nsnc12)N1CCN(Cc2cccc(Oc3ccc(Cl)cc3)c2)CC1` [Example 37, 4-[3-(4-Chloro-phenoxy)-benzyl]-piperazine-1-carboxylic acid benzo[1,2,5]thiadiazol-4-ylamide trifluoroacetic acid salt], for which the half-maximal inhibitory concentration (IC50) came out at 0.006 µM.

In turn, `O=C(Nc1nnn[nH]1)N1CCN(Cc2cccc(Oc3ccc(Cl)cc3)c2)CC1` [Example 57, 4-[3-(4-Chloro-phenoxy)-benzyl]-piperazine-1-carboxylic acid (1H-tetrazol-5-yl)-amide trifluoroacetic acid salt] gave an IC50 of 0.167 µM.

`O=C(Nc1ccon1)N1CCN(Cc2cnc3ccccc3c2)CC1` [Example 147, 4-Quinolin-3-ylmethyl-piperazine-1-carboxylic acid isoxazol-3-ylamide] displayed an IC50 above 10 µM.

In the case of `O=C(Nc1ccc2ncccc2n1)N1CCC(Cc2ccc3ccccc3c2)CC1` [Example 17, 4-Naphthalen-2-ylmethyl-piperidine-1-carboxylic acid [1,5]naphthyridin-2-ylamide trifluoroacetic acid salt], the IC50 was 0.517 µM.

For `O=C(Nc1ccon1)N1CCC(Cc2ccc(F)cc2)CC1` [Example 24, 4-(4-Fluoro-benzyl)-piperidine-1-carboxylic acid isoxazol-3-ylamide], the concentration for half-maximal inhibition (IC50) was 4 µM.

The compound `O=C(Nc1cc[nH]n1)N1CCN(Cc2cccc(Oc3ccc(Cl)cc3)c2)CC1` [Example 53, 4-[3-(4-Chloro-phenoxy)-benzyl]-piperazine-1-carboxylic acid (1H-pyrazol-3-yl)-amide trifluoroacetic acid salt] came in with an IC50 of 0.03 µM.

`O=C(Nc1ccc(Cl)nn1)N1CCC(Cc2ccc(F)cc2)CC1` [Example 23, 4-(4-Fluoro-benzyl)-piperidine-1-carboxylic acid (6-chloro-pyridazin-3-yl)-amide] had an IC50 of 5 µM.

For another assay, the target named is T2, FAAH (Homo sapiens, UniProt O00519).
T2 sequence (O00519 1-579): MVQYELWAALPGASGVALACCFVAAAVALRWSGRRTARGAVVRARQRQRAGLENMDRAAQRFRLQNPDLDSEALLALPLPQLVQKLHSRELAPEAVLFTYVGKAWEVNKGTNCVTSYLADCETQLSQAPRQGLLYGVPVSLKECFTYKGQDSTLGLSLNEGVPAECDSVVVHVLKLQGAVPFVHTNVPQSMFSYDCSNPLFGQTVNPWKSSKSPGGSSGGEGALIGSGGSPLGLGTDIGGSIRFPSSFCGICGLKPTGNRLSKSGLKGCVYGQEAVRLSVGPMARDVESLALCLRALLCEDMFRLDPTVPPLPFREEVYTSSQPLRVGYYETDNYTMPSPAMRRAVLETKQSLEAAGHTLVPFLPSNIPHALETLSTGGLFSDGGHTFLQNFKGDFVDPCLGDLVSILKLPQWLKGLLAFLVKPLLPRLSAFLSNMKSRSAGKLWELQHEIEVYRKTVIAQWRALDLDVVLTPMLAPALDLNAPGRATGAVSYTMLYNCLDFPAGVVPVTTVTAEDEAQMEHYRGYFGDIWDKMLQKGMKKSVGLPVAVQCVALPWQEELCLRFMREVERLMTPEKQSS
Description: Assay Method 1: FAAH assay, 3H-anandamide hydrolysis in homogenate of T84 cells or SK-N-MC cells transfected with human FAAH. The format is biochemical. To be noted: average of results, > = solubility limit or highest concentration tested. How it is done: A. Transfection of Cells with Human FAAH
as §1, with “Supercoiled human” for “Supercoiled rat”
as §2, §3
With `O=C(Nc1cnccn1)N1CCN(Cc2cccc(Oc3ccccc3Cl)c2)CC1` [Example 238, 4-[3-(2-Chlorophenoxy)benzyl]-N-pyrazin-2-ylpiperazine-1-carboxamide], the IC50 was determined as 0.2 µM.

`O=C(Nc1ccc(Cl)nn1)N1CCC(Cc2cccc(C(F)(F)F)c2)CC1` [Example 25, 4-(3-Trifluoromethyl-benzyl)-piperidine-1-carboxylic acid (6-chloro-pyridazin-3-yl)-amide]: it took 1.3 µM to reach half-maximal inhibition (IC50).

The compound `O=C(Nc1ccon1)N1CCN(Cc2cccc(Oc3ccc(Cl)c(Cl)c3)c2)CC1` [Example 47, 4-[3-(3,4-Dichloro-phenoxy)-benzyl]-piperazine-1-carboxylic acid isoxazol-3-ylamide trifluoroacetic acid salt] gave an IC50 of 1.14 µM.

Turning to `O=C(Nc1cnccn1)N1CCN(Cc2ccc(OCc3ccccc3)cc2)CC1` [Example 219, 4-[4-(Benzyloxy)benzyl]-N-pyrazin-2-ylpiperazine-1-carboxamide], 0.23 µM corresponded to half-maximal inhibition (IC50).

The compound `O=C(Nc1cnccn1)N1CCN(Cc2cccc(OCc3ccccc3)c2)CC1` [Example 223, 4-[3-(Benzyloxy)benzyl]-N-pyrazin-2-ylpiperazine-1-carboxamide] displayed a concentration for half-maximal inhibition (IC50) of 0.18 µM.

In turn, `O=C(Nc1noc2ccccc12)N1CCN(Cc2ccc3cn[nH]c3c2)CC1` [Example 101, N-1,2-Benzisoxazol-3-yl-4-(1H-indazol-6-ylmethyl)piperazine-1-carboxamide] came in with an IC50 of 6.3 µM.

Compound `O=C(Nc1ccon1)N1CCN(Cc2cc3ccccc3s2)CC1` [Example 142, 4-(1-Benzothiophen-2-ylmethyl)-N-isoxazol-3-ylpiperazine-1-carboxamide] yielded an IC50 of 2 µM.

The compound `O=C(Nc1ccon1)N1CCN(Cc2ccc3ccccc3n2)CC1` [Example 146, 4-Quinolin-2-ylmethyl-piperazine-1-carboxylic acid isoxazol-3-ylamide] displayed an IC50 of 3 µM.

In turn, `O=C(Nc1nc(-c2ccccc2)ns1)N1CCN(Cc2ccc3c(c2)OC(F)(F)O3)CC1` [Example 2, 4-(2,2-Difluoro-benzo[1,3]dioxol-5-ylmethyl)-piperazine-1-carboxylic acid (3-phenyl-[1,2,4]thiadiazol-5-yl)-amide trifluoroacetic acid salt] came in with a concentration for half-maximal inhibition (IC50) of 0.212 µM.

In turn, `O=C(Nc1ccon1)N1CCN(Cc2ccc(Br)c(Br)c2)CC1` [Example 154, 4-(3,4-Dibromobenzyl)-N-isoxazol-3-ylpiperazine-1-carboxamide] registered an IC50 of 1.3 µM.

Consider `O=C(Nc1nn[nH]n1)N1CCN(Cc2ccc3c(c2)OCO3)CC1` [Example 180, 4-Benzo[1,3]dioxol-5-ylmethyl-piperazine-1-carboxylic acid (2H-tetrazol-5-yl)-amide], for which the IC50 is above 10 µM.

Regarding `O=C(Nc1noc2ccccc12)N1CCN(Cc2cccc(Oc3ncccn3)c2)CC1` [Example 95, 4-[3-(Pyrimidin-2-yloxy)-benzyl]-piperazine-1-carboxylic acid benzo[d]isoxazol-3-ylamide], it took 2.8 µM to reach half-maximal inhibition (IC50).

As for `O=C(Nc1ccon1)N1CCN(Cc2ccc(OCc3ccccc3)cc2)CC1` [Example 135, 4-[4-(Benzyloxy)benzyl]-N-isoxazol-3-ylpiperazine-1-carboxamide], the midpoint of inhibition, the IC50, lay at 0.825 µM.
